# Assays:
# [1] = system: HepG2 cells; experiment: Annexin-V/propidium iodide double staining assay; assay type: cell-based; details: compound at its IC50, 24 h
# Protocol: To investigate the type of cell death induced by compound 5k, flow cytometry analysis was conducted. […] Subsequently, the cells were double stained with Annexin V and propidium iodide (PI). […] Apoptosis is a process of programmed cell death that occurs naturally in the body, while necrosis is a type of cell death that occurs due to damage or injury to the cell. […] In the early stage of the experiment, the percentage of apoptotic cells was 0.51% in the control group and 15.63% in the 5k treated group. In the late stage, the percentage of apoptotic cells was 0.29% in the control group and 9.74% in the 5k treated group.
# In contrast, the percentage of necrotic cells was also higher in the 5k treated group compared to the control group. The percentage of necrotic cells was 1.58% in the control group and 4.17% in the 5k treated group. […] Further studies are needed to determine the underlying mechanisms of this effect and to assess the potential therapeutic applications of compound 5k in the treatment of diseases involving abnormal cell death.
# To investigate the apoptotic effects of the synthesized compound 5k, HepG2 cells were cultured in triplicate at a density of 2.0 × 10^5 cells per well. Subsequently, the cells were treated with the selected compounds at their respective IC50 values determined by the MTT assay. After 24 h, the cells were detached using trypsin, collected, and then centrifuged. Following two washes with PBS, the cells were resuspended in 0.1 mL of binding buffer. Dual staining was performed by adding Annexin V-FITC (5 µL) and propidium iodide (5 µL) to the cell suspension, which was then incubated in the dark for 15 min at room temperature. Flow cytometry analysis was performed using the Epics XL-MCL™ flow cytometry equipment (Beckman Coulter, Apeldoorn, The Netherlands) with an excitation wavelength of 488 nm and an emission wavelength of 530 nm. Finally, the experimental results were analyzed using flowing “Turku Centre for Biotechnology” software, version 2.5.1 (Turku, Finland).
# [2] = system: four different cancer cell lines (MCF-7, HepG2, MDA-MB-231, HeLa); experiment: MTT cytotoxicity assay, range over the four cell lines; assay type: cell-based; details: read-out: IC50 values, range over the tested cancer cell lines
# Protocol: (§1) The cytotoxic effects of compounds 5a–m were evaluated using a standard MTT method against four different cancer cell lines, namely mammary gland cancer (MCF-7), hepatocellular carcinoma (HepG2), breast cancer (MDA-MB-231), and epithelioid cervix carcinoma (HeLa). […] These findings highlight the potential of these compounds as candidates for further development as cytotoxic agents for cancer treatment.
# (§2) The cytotoxicity of compounds 5a–m was assessed against various cancer cell lines and one normal cell line using the described methodology. In brief, the cells were cultured in 96-well plates with a density of 1.0 × 10^4 cells per well, supplemented with 10% fetal bovine serum (FBS), an antibiotic cocktail, and RPMI 11,640 medium. The cells were then incubated for 48 h with 5% CO2 and 100% relative humidity at 37 °C. […] Following treatment, the addition of 20 µL of MTT solution was added to each well and incubation was continued for another 4 h, after which dimethyl sulfoxide (100 µL) was used to dissolve the resulting insoluble formazan. The absorbance was measured at 570 nm using a BioTek EXL 800 plate reader (Agilent Technologies, CA, USA). By comparing the absorbance of treated samples to untreated samples, the relative cell viability percentage was calculated as (A570 of treated samples/A570 of untreated sample) × 100. The IC50 values were determined based on triplicate measurements.
# [3] = system: epithelioid cervix carcinoma (HeLa); experiment: MTT cytotoxicity assay; assay type: cell-based; details: Homo sapiens, 24 h exposure, mean ± SD of triplicate
# [4] = system: hepatocellular carcinoma (HepG2); experiment: MTT cytotoxicity assay; assay type: cell-based; details: Homo sapiens, 24 h exposure, mean ± SD of triplicate
# Protocol: as §1, §2
# [5] = system: breast cancer (MDA-MB-231); experiment: MTT cytotoxicity assay; assay type: cell-based; details: Homo sapiens, 24 h exposure, mean ± SD of triplicate
# Protocol: as §1, §2
# [6] = system: mammary gland cancer (MCF-7); experiment: MTT cytotoxicity assay; assay type: cell-based; details: 24 h exposure, mean ± SD of triplicate
# Protocol: as §1, §2
# [7] = biological target: T1, Her2 (Homo sapiens, UniProt P04626); experiment: In vitro protein kinase inhibition assay (ELISA kit); assay type: biochemical; details: triplicate
# T1 construct: purchased
# T1 sequence (P04626 23-1255): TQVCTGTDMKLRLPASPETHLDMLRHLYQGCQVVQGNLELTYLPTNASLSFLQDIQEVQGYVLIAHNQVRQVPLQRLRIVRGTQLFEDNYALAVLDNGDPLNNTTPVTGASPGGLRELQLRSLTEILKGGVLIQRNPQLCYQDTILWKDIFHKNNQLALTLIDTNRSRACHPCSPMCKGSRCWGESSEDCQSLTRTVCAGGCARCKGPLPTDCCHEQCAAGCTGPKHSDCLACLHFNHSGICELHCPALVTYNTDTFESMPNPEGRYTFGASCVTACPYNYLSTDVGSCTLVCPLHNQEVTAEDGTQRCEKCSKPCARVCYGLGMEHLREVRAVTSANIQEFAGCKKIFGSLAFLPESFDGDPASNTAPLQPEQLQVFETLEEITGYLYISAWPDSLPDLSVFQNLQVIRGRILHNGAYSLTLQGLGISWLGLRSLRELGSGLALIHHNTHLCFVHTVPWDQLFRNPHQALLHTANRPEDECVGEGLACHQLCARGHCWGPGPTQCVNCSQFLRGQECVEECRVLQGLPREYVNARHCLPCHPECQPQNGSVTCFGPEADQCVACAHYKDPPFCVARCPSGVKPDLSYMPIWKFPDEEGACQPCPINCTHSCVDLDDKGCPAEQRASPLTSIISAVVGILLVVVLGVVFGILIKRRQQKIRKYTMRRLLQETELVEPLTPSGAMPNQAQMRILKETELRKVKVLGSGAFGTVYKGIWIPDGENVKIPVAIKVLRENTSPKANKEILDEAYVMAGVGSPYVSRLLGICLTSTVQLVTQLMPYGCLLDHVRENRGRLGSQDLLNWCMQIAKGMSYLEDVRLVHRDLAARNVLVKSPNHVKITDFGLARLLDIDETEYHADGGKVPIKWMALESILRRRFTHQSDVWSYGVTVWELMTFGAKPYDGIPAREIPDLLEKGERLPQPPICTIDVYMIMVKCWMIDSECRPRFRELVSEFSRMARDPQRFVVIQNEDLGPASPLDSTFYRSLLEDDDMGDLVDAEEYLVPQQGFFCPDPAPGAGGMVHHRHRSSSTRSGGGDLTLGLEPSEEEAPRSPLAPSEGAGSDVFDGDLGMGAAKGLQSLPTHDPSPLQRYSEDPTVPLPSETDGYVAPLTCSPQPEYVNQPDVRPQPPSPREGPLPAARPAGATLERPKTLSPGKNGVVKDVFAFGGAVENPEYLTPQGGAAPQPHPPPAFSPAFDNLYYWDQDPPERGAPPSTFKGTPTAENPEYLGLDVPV
# Protocol: In accordance with the documented procedures, fifteen derivatives of the synthesized compounds were evaluated for their inhibitory effects on EGFR, VEGFR-2, Her2, and CDK2 using specific human ELISA kits (Enzyme-Linked Immunosorbent Assay) designed for each respective kinase enzyme. Initially, various concentrations of the synthesized compounds were combined with specific antibodies for each enzyme in individual wells of a 96-well plate, followed by incubation at room temperature for 2.5 h. Subsequently, the plate was washed, and a biotin antibody (100 µL), prepared in-house, was added and allowed to incubate at ambient temperature for 1 h. After another washing step, a solution of streptavidin (100 µL) was introduced to each well and left for 45 min at room temperature. Following a third round of washing, a TMB Substrate (100 µL) reagent was applied to all wells and incubated for 30 min at room temperature. Finally, the reaction was terminated by adding 50 µL of a stop solution, and the absorbance was directly measured at 450 nm. A standard curve was constructed, illustrating the relationship between concentration (X-axis) and absorbance (Y-axis).
# [8] = system: HepG2 cells; experiment: Cell cycle analysis (propidium iodide flow cytometry); assay type: cell-based
# From the text: The objective of the study was to evaluate the influence of the synthesized compounds on the progression of the cell cycle in HepG2 cells.
# The observed modifications in cell cycle distribution following drug treatment indicate a potential mechanism of action involving cell cycle arrest, a commonly employed therapeutic strategy for suppressing cancer cell proliferation. By impeding cells in the G0–G1 phase, drugs can effectively prevent them from proceeding to the S phase, where DNA replication takes place, and ultimately lead to cell death. […] The cell cycle distribution index (CDI) is a metric that quantifies the rate of cell proliferation and can be derived from the percentage of cells in each phase of the cell cycle. The CDI was calculated using the formula: CDI = (G2/M + S)/[…], wherein G0/G1, S, and G2/M denote the percentages of cells in the respective phases of the cell cycle. The CDI values for the control and compound 5k were determined to be 1.35 and 1.03, respectively.
# To investigate the impact of the synthesized compound 5k on cell cycle progression, the ab139418 Propidium Iodide flow cytometry kit/BD was utilized. Initially, HepG2 cells were seeded in triplicate at a density of 2 × 10^5 cells per well in 6-well plates and incubated for 24 h. […] Following treatment, the HepG2 cells were fixed with 70% ethanol and incubated for 12 h at 4 °C. Subsequently, the wells were washed with cold PBS, treated with RNase A (100 µL) at 37 °C for 30 min, and stained with Propidium Iodide (400 µL) in a dark environment at room temperature for another 30 min. The labeled cells were then analyzed using the Epics XLMCL™ flow cytometer equipment (Beckman Coulter, Apeldoorn, the Netherlands). Finally, the experimental results were analyzed using Turku Centre for Biotechnology software version 2.5.1 (Turku, Finland).
smiles,measurement,setting,value
"O=C(N/N=C/c1ccc(Cl)c(Cl)c1)c1ccc(Nc2ncnc3[nH]ccc23)cc1 [Compound 5k, (E)-4-((7H-Pyrrolo[2,3-d]pyrimidin-4-yl)amino)-N’-(3,4-dichlorobenzylidene)benzohydrazide]",Apoptosis Late,[1]; control 0.29,9.74%
same,Apoptosis Early,[1]; control 0.51,15.63%
same,Necrosis,[1]; control 1.58,4.17%
same,IC50,[2],29 to 59 µM
same,IC50,[3],57.8 ± 3.1 µM
same,IC50,[4],41.5 ± 2.6 µM
same,IC50,[5],51.4 ± 2.8 µM
same,IC50,[6],59.1 ± 3.5 µM
same,IC50,"[6]; Homo sapiens, MCF7, 24 h",60 µM
same,IC50,[7],40 nM
same,Cell Cycle Distribution Index (CDI),"[8]; CDI = (G2/M + S)/G0/G1, control 1.35",1.03
same,DNA Content (%) %G2/M,"[8]; compound at its IC50, 24 h, control 19.38",18.3%
same,DNA Content (%) %S,"[8]; compound at its IC50, 24 h, control 36.76",32.52%
same,DNA Content (%) %G0–G1,"[8]; compound at its IC50, 24 h, control 43.86",49.18%

# Source: paper PMC10536928, “Discovery of New Pyrrolo[2,3-d]pyrimidine Derivatives as Potential Multi-Targeted Kinase Inhibitors and Apoptosis Inducers” (Pharmaceuticals, 2023)
